Test system: healthy subjects
Assay: Safety: single-dose study in healthy subjects (3, 6, 10, 16 mg/kg)
Format: in vivo
Settings: for Arthralgia / Colitis / Flatulence / Gastroenteritis / Headache / Somnolence / Total Number (%) of Subjects Experiencing Adverse Events / Total Number of Subjects Experiencing NO Adverse Events / Upper respiratory tract infection: 3 subjects
Excerpt: Example 8 was a double-blind, placebo-controlled single dose-escalating study in healthy subjects. Men between the ages of 18-45 years qualified to participate if they were able to voluntarily give consent and had no clinically significant abnormal findings at the screening evaluation. Specifically, subjects had blood pressure in the normal range, ECG and clinical laboratory values within normal limits, tested negative for drugs of abuse and had not recently donated blood. Subjects were also HIV, Hepatitis B, and Hepatitis C negative and agreed to use an approved method of contraception during the study.
The objectives of this study were to assess the safety, tolerability, and pharmacokinetics of ascending single doses of Compound 1 compared to placebo. Additionally, dose proportionality and pharmacodynamics of Compound 1 were assessed. Four doses of Compound 1 (3, 6, 10, and 16 mg/kg), in capsule form, were evaluated in this study. Following screening, subjects in a given cohort were randomly assigned to receive either Compound 1 or placebo. In the first cohort, 3 subjects received […] and 2 received placebo; in each of the subsequent remaining 3 cohorts, 3 subjects received the next higher dose of Compound 1 and 1 received placebo. Subjects were dosed and then confined to the clinical research unit for 24 hours to conduct safety and pharmacokinetic assessments. Subjects were released from the clinic on Day 2 and returned daily for follow-up visits for 5 days post-dosing.
All 17 enrolled subjects completed the study: Twelve received a single dose of Compound 1 (3, 6, 10, and 16 mg/kg) and 5 received placebo. […] Treatment-emergent adverse events (TEAEs) were reported for 5 of the 12 subjects receiving Compound 1 (Table 28 and 29). A total of 9 AEs were reported; 8 treatment-emergent, and 1 pre-dose, all in subjects receiving Compound 1. […] Additionally, there were no clear differences in safety as evaluated by clinical laboratory assessments, vital sign measurements, and ECG parameters between subjects who had received Compound 1 compared with those who received placebo, and no apparent dose-related trends in these safety assessments in subjects who received Compound 1.

## COCCOCCOCCOc1cccc(C2=N[C@@](C)(C(=O)O)CS2)c1O [Compound 1, (S)-4,5-Dihydro-2-[2-hydroxy-3-(3,6,9-trioxadecyloxy)phenyl]-4-methyl-4-thiazolecarboxylate magnesium hydroxide]
3 mg/kg
  Arthralgia: 0 Number (%) Subjects
  Colitis: 0 Number (%) Subjects
  Flatulence: 0 Number (%) Subjects
  Gastroenteritis: 1 (33%) Number (%) Subjects
  Headache: 0 Number (%) Subjects
  Somnolence: 1 (33%) Number (%) Subjects
  Total Number (%) of Subjects Experiencing Adverse Events: 1 (33%) Number (%)
  Total Number of Subjects Experiencing NO Adverse Events: 2 (67%)
  Upper respiratory tract infection: 0 Number (%) Subjects
6 mg/kg
  Arthralgia: 1 (33%) Number (%) Subjects
  Colitis: 0 Number (%) Subjects
  Flatulence: 0 Number (%) Subjects
  Gastroenteritis: 0 Number (%) Subjects
  Headache: 0 Number (%) Subjects
  Somnolence: 0 Number (%) Subjects
  Total Number (%) of Subjects Experiencing Adverse Events: 1 (33%) Number (%)
  Total Number of Subjects Experiencing NO Adverse Events: 2 (67%)
  Upper respiratory tract infection: 1 (33%) Number (%) Subjects
10 mg/kg
  Colitis: 0 Number (%) Subjects
  Flatulence: 0 Number (%) Subjects
  Gastroenteritis: 0 Number (%) Subjects
  Headache: 0 Number (%) Subjects
  Somnolence: 0 Number (%) Subjects
  Total Number (%) of Subjects Experiencing Adverse Events: 0 Number (%)
  Total Number of Subjects Experiencing NO Adverse Events: 3 (100%)
  Upper respiratory tract infection: 0 Number (%) Subjects
16 mg/kg
  Arthralgia: 0 Number (%) Subjects
  Colitis: 1 (33%) Number (%) Subjects
  Flatulence: 1 (33%) Number (%) Subjects
  Headache: 1 (33%) Number (%) Subjects
  Somnolence: 0 Number (%) Subjects
  Total Number (%) of Subjects Experiencing Adverse Events: 3 (100%) Number (%)
  Total Number of Subjects Experiencing NO Adverse Events: 0
  Upper respiratory tract infection: 0 Number (%) Subjects
Single dose 3, 6, 10, 16 mg/kg
  tolerability: well tolerated
Single dose 3-16 mg/kg
  deaths, SAEs, withdrawals due to AEs: no deaths, no serious adverse events (SAEs), and no withdrawals due to AEs
  subjects with treatment-emergent adverse events (TEAEs): 5 of the 12
  total AEs reported: 9 AEs
  treatment-emergent AEs: 8

From US8993606B2, “Oral formulations for treating metal overload” (FerroKin BioSciences, Inc., priority 2011, dated 2015)
